# Experimental data published in US9321760B2 (Merck Patent GmbH, priority 2011, dated 2016).
# pIC50: −log10 of the molar value.
# Molecular target: P70S6K (T412E mutant) (Homo sapiens (Human), UniProt P23443, T412E)
# Assay: P70S6K enzyme assay
# Assay type: biochemical
# Settings: 3 nM P70S6K T412E mutant, 24 μM ATP, 1 μM FITC-AHA-AKRRRLSSLRA-OH substrate peptide, 90 min at 25° C.
# Description: The IC50 values reported for the compounds in the Experimental section were derived from the following protocol for the p70S6K enzyme assay.
# P70S6K inhibitor compounds were diluted and plated in 96 well plates. A reaction mixture including the following components was then added to the compound plate to initiate the enzyme reaction; P70S6K (3 nM, T412E mutant, Millipore) was mixed with 24 μM ATP in an assay buffer containing 100 mM Hepes (pH 7.5), 5 mM MgCl2, 1 mM DTT, 0.015% Brij and 1 μM of the substrate peptide FITC-AHA-AKRRRLSSLRA-OH (derived from the S6 ribosomal protein sequence, FITC=fluorescein isothiocyanate, AHA=6-aminohexanoic acid). The reaction was incubated for 90 min at 25° C., before the addition of 10 mM EDTA to stop the reaction. The proportion of substrate and product (phosphorylated) peptide was analysed on a Caliper Life Sciences Lab Chip 3000, using a pressure of −1.4 psi, and upstream and downstream voltages of −3000 and −700 respectively. Product peaks were resolved before substrate peaks on the resulting chromatograms.
# Chain of P70S6K (T412E mutant) (P23443 whole entry T412E): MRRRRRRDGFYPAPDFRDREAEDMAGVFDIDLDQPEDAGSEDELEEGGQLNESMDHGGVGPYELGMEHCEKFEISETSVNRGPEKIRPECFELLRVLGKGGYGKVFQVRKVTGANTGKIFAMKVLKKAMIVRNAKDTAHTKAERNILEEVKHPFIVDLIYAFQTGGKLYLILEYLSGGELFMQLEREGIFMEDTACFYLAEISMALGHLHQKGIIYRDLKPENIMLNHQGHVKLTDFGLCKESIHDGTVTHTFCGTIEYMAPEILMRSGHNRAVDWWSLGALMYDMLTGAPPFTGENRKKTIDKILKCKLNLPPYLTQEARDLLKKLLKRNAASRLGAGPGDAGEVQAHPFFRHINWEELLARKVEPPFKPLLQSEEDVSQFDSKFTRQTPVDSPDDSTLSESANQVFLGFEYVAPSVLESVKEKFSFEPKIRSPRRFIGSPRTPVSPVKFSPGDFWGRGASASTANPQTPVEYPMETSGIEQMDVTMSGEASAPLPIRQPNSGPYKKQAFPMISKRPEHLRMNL
row,Compound,pIC50
1,"CN(C)CCNC(=O)C(c1ccc(C(F)(F)F)cc1)N1CCN(c2ncnc(N)c2-c2ccc(F)cc2)CC1 (stereo not shown) [Example 18, 2-(4-(6-amino-5-(4-fluorophenyl)pyrimidin-4-yl)piperazin-1-yl)-N-(2-(dimethylamino)ethyl)-2-(4-(trifluoromethyl)phenyl)acetamide]",7.74
2,"NCC(c1ccc(C(F)(F)F)cc1)C1CCN(c2ncnc(N)c2Br)CC1 (stereo not shown) [Example 51, 6-{4-[2-Amino-1-(4-trifluoromethyl-phenyl)-ethyl]-piperidin-1-yl}-5-bromo-pyrimidin-4-ylamine]",7.39
3,"N#CC(c1ccc(F)c(C(F)(F)F)c1)N1CCN(c2ncnc(N)c2-c2ccc(F)cc2)CC1 (stereo not shown) [Example 154, {4-[6-Amino-5-(4-fluoro-phenyl)-pyrimidin-4-yl]-piperazin-1-yl}-(4-fluoro-3-trifluoromethyl-phenyl)-acetonitrile]",< 6.00
4,"N#Cc1cccc([C@H](CN2CCC2)N2CCN(c3ncnc(N)c3-c3cn[nH]c3)CC2)c1 [Example 91, 3-((R)-1-{4-[6-Amino-5-(1H-pyrazol-4-yl)-pyrimidin-4-yl]-piperazin-1-yl}-2-azetidin-1-yl-ethyl)-benzonitrile]",5.20
5,"Nc1ncnc(N2CCC(C(c3ccc(F)cc3)N3CCCC3)CC2)c1-c1ccc(F)cc1 (stereo not shown) [Example 148, 5-(4-fluoropheny)-6-(4-((4-fluorophenyl)(pyrrolidin-1-yl)methyl)piperidin-1-yl)pyrimidin-4-amine]",6.60
6,"COC[C@H](NC(=O)C1(N)CCN(c2ncnc(N)c2-c2cn[nH]c2)CC1)c1ccc(Cl)cc1 [Example 240, 4-Amino-1-[6-amino-5-(1H-pyrazol-4-yl)-pyrimidin-4-yl]-piperidine-4-carboxylic acid [(R)-1-(4-chloro-phenyl)-2-methoxy-ethyl]-amide]",7.00
7,"NCC(c1ccc(F)c(C(F)(F)F)c1)N1CCN(c2ncnc(N)c2-c2ccc(F)cc2)CC1 (stereo not shown) [Example 155, 6-{4-[2-Amino-1-(4-fluoro-3-trifluoromethyl-phenyl)-ethyl]-piperazin-1-yl}-5-(4-fluoro-phenyl)-pyrimidin-4-ylamine]",7.85
8,"N#Cc1cccc([C@@H](CN2CCC2)N2CCN(c3ncnc(N)c3-c3cn[nH]c3)CC2)c1 [Example 97, 3-((S)-1-{4-[6-Amino-5-(1H-pyrazol-4-yl)-pyrimidin-4-yl]-piperazin-1-yl}-2-azetidin-1-yl-ethyl)-benzonitrile]",5.43
9,"NC[C@H](c1ccc(Cl)nc1)N1CCN(c2ncnc(N)c2-c2ccc(F)cc2)CC1 [Example 176, 6-{4-[(S)-2-Amino-1-(6-chloro-pyridin-3-yl)-ethyl]-piperazin-1-yl}-5-(4-fluoro-phenyl)-pyrimidin-4-ylamine]",9.10
10,"N#Cc1c(N)ncnc1N1CCC(N)(C(=O)N[C@@H](CCO)c2ccncc2)CC1 [Example 231, 4-Amino-1-(6-amino-5-cyano-pyrimidin-4-yl)-piperidine-4-carboxylic acid ((S)-3-hydroxy-1-pyridin-4-yl-propyl)-amide]",5.44
11,"N#Cc1cccc([C@H](CN2CCC2)N2CCN(c3ncnc(N)c3-c3ccc(F)cc3)CC2)c1 [Example 129, 3-((R)-1-{4-[6-Amino-5-(4-fluoro-phenyl)-pyrimidin-4-yl]-piperazin-1-yl}-2-azetidin-1-yl-ethyl)-benzonitrile]",6.21
12,"CN(C)CC(c1ccc(C(F)(F)F)cc1)N1CCN(c2ncnc(N)c2-c2ccc(C(C)(C)O)cc2)CC1 (stereo not shown) [Example 22, 2-(4-(4-amino-6-(4-(2-(dimethylamino)-1-(4-(trifluoromethyl)phenyl)ethyl)-piperazin-1-yl)pyrimidin-5-yl)phenyl)propan-2-ol]",7.70
13,"Nc1ncnc(N2CCC(C(NC3CCCC3)c3ccc(F)cc3)CC2)c1-c1ccc(F)cc1 (stereo not shown) [Example 145, 6-(4-((cyclopentylamino)(4-fluorophenyl)methyl)piperidin-1-yl)-5-(4-fluorophenyl)pyrimidin-4-amine]",6.92
14,"Nc1ncnc(N2CCN(C(CN3CCCC3)c3ccc(C(F)(F)F)cc3)CC2)c1-c1ccc(F)cc1 (stereo not shown) [Example 10, 5-(4-fluorophenyl)-6-(4-(2-(pyrrolidin-1-yl)-1-(4-(trifluoromethyl)-phenyl)-ethyl)-piperazin-1-yl)-pyrimidin-4-amine]",7.51
15,"N#Cc1c(N)ncnc1N1CCN(C(CN)c2ccc(C(F)(F)F)cc2)CC1 (stereo not shown) [Example 36, 4-Amino-6-{4-[2-amino-1-(4-trifluoromethyl-phenyl)-ethyl]-piperazin-1-yl}-pyrimidine-5-carbonitrile]",7.85
16,"N#CC(c1ccc(Cl)cc1)N1CCN(c2ncnc(N)c2-c2ccc(F)cc2)CC1 (stereo not shown) [Example 162, {4-[6-Amino-5-(4-fluoro-phenyl)-pyrimidin-4-yl]-piperazin-1-yl}-(4-chloro-phenyl)-acetonitrile]",7.17
17,"NCC(c1ccc(OC(F)(F)F)cc1)N1CCN(c2ncnc(N)c2-c2cn[nH]c2)CC1 (stereo not shown) [Example 186, 6-(4-(2-amino-1-(4-(trifluoromethoxy)phenyl)ethyl)piperazin-1-yl)-5-(1H-pyrazol-4-yl)pyrimidin-4-amine]",8.85
18,"Nc1ncnc(N2CCN(C(CN3CCC3)c3cccc(C(F)(F)F)c3Cl)CC2)c1-c1cn[nH]c1 (stereo not shown) [Example 134, 6-{4-[2-Azetidin-1-yl-1-(2-chloro-3-trifluoromethyl-phenyl)-ethyl]-piperazin-1-yl}-5-(1H-pyrazol-4-yl)-pyrimidin-4-ylamine]",6.52
19,"CCc1c(N)ncnc1N1CCN(C(CN)c2ccc3c(c2)OCCO3)CC1 (stereo not shown) [Example 181, 6-{4-[2-Amino-1-(2,3-dihydro-benzo[1,4]dioxin-6-yl)-ethyl]-piperazin-1-yl}-5-ethyl-pyrimidin-4-ylamine]",6.74
20,"N#CC(c1cccc(C(F)(F)F)c1)N1CCN(c2ncnc(N)c2Br)CC1 (stereo not shown) [Example 166, [4-(6-Amino-5-bromo-pyrimidin-4-yl)-piperazin-1-yl]-(3-trifluoromethyl-phenyl)-acetonitrile]",5.21
21,"NCC(c1cccc(C(F)(F)F)c1)N1CCN(c2ncnc(N)c2-c2ccc(F)cc2)CC1 (stereo not shown) [Example 153, 6-{4-[2-Amino-1-(3-trifluoromethyl-phenyl)-ethyl]-piperazin-1-yl}-5-(4-fluoro-phenyl)-pyrimidin-4-ylamine]",7.96

# Continued by rising pIC50, values first:
row,pIC50,Compound
1,5.06,"Nc1ncnc(N2CCN([C@H](CN3CCC3)c3cccc(F)c3)CC2)c1-c1cn[nH]c1 [Example 87, 6-{4-[(S)-2-Azetidin-1-yl-1-(3-fluoro-phenyl)-ethyl]-piperazin-1-yl}-5-(1H-pyrazol-4-yl)-pyrimidin-4-ylamine]"
2,5.92,"N#Cc1cccc([C@@H](CN2CCC2)N2CCN(c3ncnc(N)c3-c3ccc(F)cc3)CC2)c1 [Example 125, 3-((S)-1-{4-[6-Amino-5-(4-fluoro-phenyl)-pyrimidin-4-yl]-piperazin-1-yl}-2-azetidin-1-yl-ethyl)-benzonitrile]"
3,6.09,"Nc1ncnc(N2CCC(N)(C(=O)N[C@H](c3ccc(Cl)cc3)C(F)(F)F)CC2)c1Cl [Example 216, 4-Amino-1-(6-amino-5-chloro-pyrimidin-4-yl)-piperidine-4-carboxylic acid [(R)-1-(4-chloro-phenyl)-2,2,2-trifluoroethyl]-amide]"
4,6.25,"COC[C@H](NC(=O)C1(N)CCN(c2ncnc(N)c2Cl)CC1)c1ccc(Cl)cc1 [Example 234, 4-Amino-1-(6-amino-5-chloro-pyrimidin-4-yl)-piperidine-4-carboxylic acid [(R)-1-(4-chloro-phenyl)-2-methoxy-ethyl]-amide]"
5,6.26,"Nc1ncnc(N2CCN(C(CN3CCC3)c3ccc(C(F)(F)F)c(F)c3)CC2)c1-c1cn[nH]c1 (stereo not shown) [Example 127, 6-{4-[2-Azetidin-1-yl-1-(3-fluoro-4-trifluoromethyl-phenyl)-ethyl]-piperazin-1-yl}-5-(1H-pyrazol-4-yl)-pyrimidin-4-ylamine]"
6,6.60,"Nc1ncnc(N2CCC(N)(C(=O)N[C@@H](CCO)c3ccc(Cl)cc3)CC2)c1Cl [Example 235, 4-Amino-1-(6-amino-5-chloro-pyrimidin-4-yl)-piperidine-4-carboxylic acid [(S)-1-(4-chloro-phenyl)-3-hydroxy-propyl]-amide]"
7,6.85,"Nc1ncnc(N2CCN(C(CN3CCC3)c3ccc4[nH]c(=O)sc4c3)CC2)c1-c1ccc(F)cc1 (stereo not shown) [Example 118, 6-(1-{4-[6-Amino-5-(4-fluoro-phenyl)-pyrimidin-4-yl]-piperazin-1-yl}-2-azetidin-1-yl-ethyl)-3H-benzothiazol-2-one]"
8,7.09,"Nc1ncnc(N2CCN(C(CN3CCCC3)c3cccc(C(F)(F)F)c3)CC2)c1-c1ccc(F)cc1 (stereo not shown) [Example 66, 5-(4-Fluorophenyl)-6{4-[1-(3-trifluoromethyl-phenyl)-2-pyrrolidin-1-yl-ethyl]-piperazin-1-yl}-pyrimidin-4-ylamine]"
9,8.36,"NCC(c1ccc(F)cc1)N1CCN(c2ncnc(N)c2-c2ccc(F)cc2)CC1 (stereo not shown) [Example 159, 6-{4-[2-Amino-1-(4-fluoro-phenyl)-ethyl]-piperazin-1-yl}-5-(4-fluoro-phenyl)-pyrimidin-4-ylamine]"
10,8.38,"Nc1ncnc(N2CCN(C(CN3CCC3)c3ccc(C(F)(F)F)cc3)CC2)c1-c1ccc(F)cc1 (stereo not shown) [Example 27, 6-(4-(2-(azetidin-1-yl)-1-(4-(trifluoromethyl)phenyl)ethyl)piperazin-1-yl)-5-(4-fluorophenyl)pyrimidin-4-amine]"
